# Reference: patent US7365069B2, “Pyrimidone derivatives” (Bexel Pharmaceuticals Inc., priority 2002, dated 2008)
# Experiments:
# TNF-α = TNF-α production in LPS-stimulated human whole blood; assay type: cell-based; conditions: LPS 4 h
# Procedure: Tumor Necrosis Factor Alpha (TNF-α)
# This assay determines the effect of test compounds on the production of TNF-α in human whole blood. TNF-α assay is carried out as described by Armin hatzelmann and Christian Schudt (J Pharm Exp Ther 297, 261, 2001). Compounds are tested for their ability to inhibit the activity of TNF-α in human whole blood. The test compounds are pre-incubated for 15 minutes at 37° C. and then stimulated with Lipopolysaccharide (Salmonella abortus equi, 1 μg/ml) for 4 h at 37° C. in 5% CO2. The levels of TNF-α are estimated using Enzyme linked Immunosorbent assay performed in a 96 well format as per the procedure of the manufacturer (Cayman Chemical, Ann Arbor, USA).
# COX-2 = target: T1, COX-2 (Homo sapiens, UniProt P35354); assay: Human whole blood assay, COX-2 inhibition (PGE2 ELISA after LPS); assay type: cell-based; conditions: LPS 24 h
# T1 construct: incubation of human blood with lipopolysaccharide (LPS), which induces COX-2 production in the blood; endogenous in cells; host or cells: fresh human whole blood from volunteers, treated with aspirin and then LPS
# T1 sequence (P35354 18-604): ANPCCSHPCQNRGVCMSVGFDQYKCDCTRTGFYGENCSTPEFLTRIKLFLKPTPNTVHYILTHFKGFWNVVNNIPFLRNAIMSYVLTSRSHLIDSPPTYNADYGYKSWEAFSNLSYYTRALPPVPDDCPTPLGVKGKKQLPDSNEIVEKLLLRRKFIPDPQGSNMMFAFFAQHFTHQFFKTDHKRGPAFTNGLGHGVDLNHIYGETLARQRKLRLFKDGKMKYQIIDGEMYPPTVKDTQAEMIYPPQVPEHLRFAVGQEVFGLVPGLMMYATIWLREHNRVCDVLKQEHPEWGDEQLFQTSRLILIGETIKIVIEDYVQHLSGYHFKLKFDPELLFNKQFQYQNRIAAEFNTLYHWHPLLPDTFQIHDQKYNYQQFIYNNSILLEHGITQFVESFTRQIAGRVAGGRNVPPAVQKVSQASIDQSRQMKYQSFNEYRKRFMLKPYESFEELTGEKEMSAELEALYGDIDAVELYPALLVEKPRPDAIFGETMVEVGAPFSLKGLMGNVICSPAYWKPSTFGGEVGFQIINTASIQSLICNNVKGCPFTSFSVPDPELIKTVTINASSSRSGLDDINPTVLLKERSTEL
# Procedure: In Vivo Evaluation of Cyclooxygenase-2 (COX-2) Inhibition Activity
# The COX-2 inhibition activities of the compounds illustrated in the examples are determined by the following method.
# Human whole blood provides a protein and cell rich milieu appropriate for the study of biochemical efficacy of anti-inflammatory compounds such as selective COX-2 inhibitors. […] This is correlating with the observation that COX-2 inhibitors have no effect on prostaglandin E2 (PGE2) production in normal blood. These inhibitors are active only after incubation of human blood with lipopolysaccharide (LPS), which induces COX-2 production in the blood.
# Fresh blood is collected in tubes containing potassium EDTA by vein puncture from make volunteers. The subjects should have no apparent inflammatory conditions and not taken NSAIDs for at least 7 days prior to blood collection. Blood is treated with aspirin in vitro (10 μg/ml, at time zero) to inactivate COX-1, and then with LPS (10 μg/ml) along with test agents or vehicle. The blood is incubated for 24 h at 37° C., after which the tubes are centrifuged, the plasma is separated and stored at −80° C. (J. Pharmacol. Exp. Ther, 271, 1705, 1994; Proc. Natl. Acad. Sci. USA., 96, 7563, 1999). The plasma is assayed for PGE2 using Cayman ELISA kit as per the procedure outlined by the manufacturer (Cayman Chemicals, Ann Arbor, USA).
melting point [°C],SMILES,also measured
> 285,"CS(=O)(=O)c1ccc(-n2c(-c3ccc(F)cc3)nc(O)c(C#N)c2=O)cc1 [Example 52, 5-cyano-2-(4-fluorophenyl)-4-hydroxy-1-[4-(methylsulfonyl)phenyl]-6-oxo-1,6-dihydropyrimidine]",
218 to 223,"CSc1nc(-c2ccccn2)n(-c2ccc(C)c(C)c2)c(=O)c1C#N [Example 32, 5-cyano-4-(methylthio)-1-(3,4-dimethylphenyl)-6-oxo-2-pyridin-2-yl-1,6-dihydropyrimidine]",inhibition at 0.1 µM (TNF-α): 17.9%
213 to 215,"CSc1ccc(-c2nc(SC)c(C#N)c(=O)n2-c2ccc(Br)cc2)cc1 [Example 15, 1-(4-bromophenyl)-5-cyano-4-(methylthio)-2-[4-(methylthio)phenyl]-6-oxo-1,6-dihydropyrimidine]",inhibition at 0.1 µM (TNF-α): 18.4%
237 to 241,"CS(=O)(=O)c1ccc(-n2c(-c3ccc(F)cc3)nc(S(C)(=O)=O)c(C(N)=O)c2=O)cc1 [Example 48, 5-carboxamido-2-(4-fluorophenyl)-4-(methylsulfonyl)-1-[4-(methylsulfonyl)phenyl]-6-oxo-1,6-dihydropyrimidine]",
172 to 175,"CCc1ccc(-n2c(-c3ccccn3)nc(SC)c(C#N)c2=O)cc1 [Example 33, 5-cyano-4-(methylthio)-1-(4-ethylphenyl)-6-oxo-2-pyridin-2-yl-1,6-dihydropyrimidine]",
269 to 275,"Cc1ccc(-n2c(-c3ccc(S(C)(=O)=O)cc3)nc(N3CCNCC3)c(C(N)=O)c2=O)cc1 [Example 45, 5-carboxamido-1-(4-methylphenyl)-2-[4-(methylsulfonyl)phenyl]-6-oxo-4-piperazin-1-yl-1,6-dihydropyrimidine]",
201 to 204,"CCOc1ccc(-n2c(-c3ccncc3)nc(SC)c(C#N)c2=O)cc1 [Example 35, 5-cyano-4-(methylthio)-1-(4-ethoxyphenyl)-6-oxo-2-pyridin-4-yl-1,6-dihydropyrimidine]",
> 285,"Cc1ccc(-n2c(-c3ccc(S(C)(=O)=O)cc3)nc(O)c(C#N)c2=O)cc1C [Example 53, 5-cyano-1-(3,4-dimethylphenyl)-4-hydroxy-2-[4-(methylsulfonyl)phenyl]-6-oxo-1,6-dihydropyrimidine]",
207 to 209,"CCc1ccc(-n2c(-c3cccnc3)nc(SC)c(C#N)c2=O)cc1 [Example 38, 5-cyano-4-(methylthio)-1-(4-ethylphenyl)-6-oxo-2-pyridin-3-yl-1,6-dihydropyrimidine]",
247 to 248,"CSc1nc(-c2ccccn2)n(-c2ccc(C)cc2)c(=O)c1C#N [Example 34, 5-cyano-4-(methylthio)-1-(4-methylphenyl)-6-oxo-2-pyridin-2-yl-1,6-dihydropyrimidine]",
226 to 228,"Cc1ccc(-n2c(-c3ccc(S(C)(=O)=O)cc3)nc(N3CCOCC3)c(C(N)=O)c2=O)cc1 [Example 47, 5-carboxamido-1-(4-methylphenyl)-2-[4-(methylsulfonyl)phenyl]-4-morpholin-4-yl-6-oxo-1,6-dihydropyrimidine]",
199 to 205,"CNc1nc(-c2ccc(SC)cc2)n(-c2ccc(C)c(C)c2)c(=O)c1C#N [Example 55, 5-cyano-1-(3,4-dimethylphenyl)-4-(methylamino)-2-[4-(methylthio)phenyl]-6-oxo-1,6-dihydropyrimidine]",inhibition at 1 µM (TNF-α): 54.4%; inhibition at 1 µM (COX-2; 1 μM): 8.2%
230 to 233,"COc1ccc(-n2c(-c3cccnc3)nc(SC)c(C#N)c2=O)cc1 [Example 40, 5-cyano-4-(methylthio)-1-(4-methoxyphenyl)-6-oxo-2-pyridin-3-yl-1,6-dihydropyrimidine]",
246 to 253,"COc1ccc(-n2c(-c3ccccn3)nc(SC)c(C#N)c2=O)cc1 [Example 31, 5-cyano-4-(methylthio)-1-(4-methoxyphenyl)-6-oxo-2-pyridin-2-yl-1,6-dihydropyrimidine]",inhibition at 0.1 µM (TNF-α): 20.2%
245 to 248,"Cc1ccc(-n2c(-c3ccc(S(C)(=O)=O)cc3)nc(S(C)(=O)=O)c(C(N)=O)c2=O)cc1C [Example 51, 5-carboxamido-1-(3,4-dimethylphenyl)-4-(methylsulfonyl)-2-[4-(methylsulfonyl)phenyl]-6-oxo-1,6-dihydropyrimidine]",
173 to 175,"CSc1nc(-c2ccncc2)n(-c2ccc(C(C)C)cc2)c(=O)c1C#N [Example 37, 5-cyano-4-(methylthio)-1-(4-isopropylphenyl)-6-oxo-2-pyridin-4-yl-1,6-dihydropyrimidine]",
> 250,"CSc1nc(-c2ccncc2)n(-c2ccc(C)cc2)c(=O)c1C#N [Example 36, 5-cyano-4-(methylthio)-1-(4-methylphenyl)-6-oxo-2-pyridin-4-yl-1,6-dihydropyrimidine]",
203 to 205,"CSc1ccc(-c2nc(SC)c(C#N)c(=O)n2-c2ccc(C)cc2C)cc1 [Example 19, 5-cyano-1-(2,4-dimethylphenyl)-4-(methylthio)-2-[4-(methylthio)phenyl]-6-oxo-1,6-dihydropyrimidine]",
> 250,"CSc1nc(-c2cccnc2)n(-c2ccc(C)c(C)c2)c(=O)c1C#N [Example 39, 5-cyano-4-(methylthio)-1-(3,4-dimethylphenyl)-6-oxo-2-pyridin-3-yl-1,6-dihydropyrimidine]",
258 to 260,"CSc1nc(-c2ccccc2)n(-c2ccc(C)cc2)c(=O)c1C#N [Example 23, 5-cyano-1-(4-methylphenyl)-4-(methylthio)-6-oxo-2-phenyl-1,6-dihydropyrimidine]",
192 to 195,"COc1cc(-n2c(-c3ccc(SC)cc3)nc(SC)c(C#N)c2=O)cc(OC)c1OC [Example 13, 5-cyano-1-(3,4,5-trimethoxyphenyl)-4-(methylthio)-2-[4-(methylthio)phenyl]-6-oxo-1,6-dihydropyrimidine]",inhibition at 0.25 µM (COX-2): 33.5%
> 300,"CNc1nc(-c2ccc(S(C)(=O)=O)cc2)n(-c2ccc(C)cc2)c(=O)c1C(N)=O [Example 46, 5-carboxamido-4-(methylamino)-1-(4-methylphenyl)-2-[4-(methylsulfonyl)phenyl]-6-oxo-1,6-dihydropyrimidine]",
301 to 303,"CSc1nc(-c2ccncc2)n(-c2ccc(F)cc2)c(=O)c1C#N [Example 25, 5-cyano-1-(4-fluorophenyl)-4-(methylthio)-6-oxo-2-pyridin-4-yl-1,6-dihydropyrimidine]",inhibition at 1 µM (TNF-α): 59.6%
223 to 225,"CCc1ccc(-n2c(-c3ccc(SC)cc3)nc(SC)c(C#N)c2=O)cc1 [Example 14, 5-cyano-1-(4-ethylphenyl)-4-(methylthio)-2-[4-(methylthio)phenyl]-6-oxo-1,6-dihydropyrimidine]",inhibition at 0.25 µM (COX-2): 28.2%
260 to 262,"Cc1ccc(-n2c(-c3ccc(S(C)(=O)=O)cc3)nc(S(C)(=O)=O)c(C(N)=O)c2=O)cc1 [Example 44, 5-carboxamido-1-(4-methylphenyl)-4-(methylsulfonyl)-2-[4-(methylsulfonyl)phenyl]-6-oxo-1,6-dihydropyrimidine]",
138 to 141,"CCCCc1ccc(-n2c(-c3ccc(SC)cc3)nc(SC)c(C#N)c2=O)cc1 [Example 24, 1-(4-n-butylphenyl)-5-cyano-4-(methylthio)-2-[4-(methylthio)phenyl]-6-oxo-1,6-dihydropyrimidine]",
